Measured values published in US12139458B2, “(2,5-dioxopyrrolidin-1-yl)(phenyl)-acetamide derivatives and their use in the treatment of neurological diseases” (UNIWERSYTET JAGIELLONSKI, priority 2019, dated 2024).

How the values were obtained:
[1] = Rotarod test (motor coordination); assay type: in vivo; settings: male, Swiss albino (CD-1), mouse, in vivo, ip, mice
Description: (§1) All procedures were carried out in accordance with applicable Polish and international guidelines on the ethics of animal testing, after obtaining appropriate institutional approval. The substances were administered intraperitoneally (i.p.), in 1% aqueous solution of Tween, as single injections with a volume of 10 ml/kg, 30 minutes before the given test. Screening was performed on groups consisted of 4 mice. […] All tests were carried out based on the procedures described in the specialist literature.
Mice were trained the day before the actual experiment. They were placed individually on a 2 cm diameter rod rotating at 10 revolutions per minute (rpm). During each training session, the animals remained on the rod for 3 minutes. The experiment was carried out 30 minutes after administration of the compounds. Motor coordination was tested at the speed of the rotating bar: 10 rpm during 60 seconds. Motor impairments were defined as the inability to remain on the rotating rod for 1 min.
(§2) To perform a statistical evaluation of the results, one-way ANOVA variance analysis and Dunnett's post hoc test (multiple comparison test) were used. The value at the significance level p<0.05 was considered statistically significant.

[2] = test system: male Swiss albino mice (CD-1); assay: Psychomotor seizure test 6 Hz (32 mA); assay type: in vivo; settings: 0.5 h, mice; for ED50 / responders at 100 mg/kg: Mus musculus, ip; for 6 Hz (32 mA): number of mice protected/number of mice tested / responders at 100 mg/kg: screening, 100 mg/kg i.p.; for responders at 100 mg/kg: read-out: 6 Hz (32 mA): number of mice protected/number of mice tested (converted)
Description: (§3) The male Swiss albino mice (CD-1) weighing 18-26 g were used. All procedures were carried out in accordance with applicable Polish and international guidelines on the ethics of animal testing, after obtaining appropriate institutional approval. The substances were administered intraperitoneally (i.p.), in 1% aqueous solution of Tween, as single injections with a volume of 10 ml/kg, 30 minutes before the given test. Screening was performed on groups consisted of 4 mice. The average effective dose (ED50) in given test and toxic dose in the rotarod test (TD50) was estimated based on the results obtained in 3-4 groups of animals consisting of 6 mice. All tests were carried out based on the procedures described in the specialist literature.
In the 6 Hz test, seizures were induced by an electric stimulus of 32 mA and/or 44 mA and a frequency of 6 pulses per second. An electrical pulse was generated using an electric shock generator (ECT Unit 57800; Ugo Basile, Gemonio, Italy) and delivered to the animal using ocular electrodes. Before starting the test, the eye surface was gently moistened with a solution of local anesthetic (1% lidocaine solution). The study was conducted 30 minutes after intraperitoneal administration of the compounds at various doses. An electrical pulse was delivered continuously for a period of 3 seconds, followed by observation of the animal for a period of 10 seconds. During this time, immobility or stun associated with rearing, forelimb clonus, twitching of the vibrissae and Straub's tail were observed. These symptoms persist throughout the observation period, indicating the occurrence of psychomotor seizures in mice. Mice resuming normal behavior within 10 s after stimulation were considered as protected (Barton, M. E.; Klein, B. D.; Wolf, H. H.; White, H. S. Epilepsy Res. 2001, 47, 217-227; Wojda, E.; Wlaź, A.; Patsalos, P. N.; Łuszczki, J. J. Epilepsy Res. 2009, 86, 163-174).
as §2

[3] = test system: male Swiss albino mice (CD-1); assay: Maximal electroshock seizure test (MES); assay type: in vivo; settings: 0.5 h, mice; for ED50 / responders at 100 mg/kg: Mus musculus, ip; for responders at 100 mg/kg / MES: number of mice protected/number of mice tested: screening, 100 mg/kg i.p.; for responders at 100 mg/kg: read-out: MES: number of mice protected/number of mice tested (converted)
Description: as §3
In the MES test, the seizures were induced by an electrical stimulus lasting of 0.2 s duration, 500 V voltage and 25 mA intensity. The electrical stimuli was generated using an electric shock generator (Rodent shocker, Type 221, Hugo Sachs Elektronik, Germany) and delivered to the animal using electrodes placed on the auricles. The study was conducted 30 minutes after intraperitoneal administration of the compounds at various doses. During the experiment, the number of animals that experienced a seizure episode in the form of tonic extension of the hind limbs was counted (Kamiński, K.; Rapacz, A.; Łuszczki, J. J.; Latacz, G.; Obniska, J.; Kieć-Kononowicz, K.; Filipek, B. Bioorg. Med. Chem. 2015, 23, 2548-2561; Castel-Branco, M. M.; Alves, G. L.; Figueiredo, I. V.; Falcão, A. C.; Caramona, M. M. Methods Find. Exp. Clin. Pharmacol. 2009, 31, 101-106).
as §2

[4] = test system: male Swiss albino mice (CD-1); assay: Subcutaneous pentylenetetrazole seizure test (scPTZ); assay type: in vivo; settings: 0.5 h, mice; for ED50 / responders at 100 mg/kg: Mus musculus, ip; for scPTZ: number of mice protected/number of mice tested / responders at 100 mg/kg: screening, 100 mg/kg i.p.; for responders at 100 mg/kg: read-out: scPTZ: number of mice protected/number of mice tested (converted)
Description: as §3
In the scPTZ test, seizures were induced by subcutaneous administration of pentylenetetrazole (PTZ) at a dose of 100 mg/kg. This caused clonic seizures with accompanying loss of the righting reflex. Test compounds were administered 30 minutes before the experiment. After PTZ administration, the animals were placed individually in transparent containers and observed for a period of 30 minutes for the occurrence of clonic seizures. During this time, the latency of the first onset of clonic seizures, defined as clonus of the whole body lasting at least 3 seconds with loss of the righting reflex and the number of seizure episodes during the test were noted and compared with control group. The absence of clonic convulsions within the observed time period was interpreted as the compound's ability to protect against PTZ-induced seizures (Ferreri, G.; Chimirri, A.; Russo, E.; Gitto, R.; Gareri, P.; De Sarro, A.; De Sarro, G. Pharmacol. Biochem. Behav. 2004, 77, 85-94; Łączkowski, K.; Sałat, K.; Misiura, K.; Podkowa, A.; Malikowska, N. J. Enzyme Inhib. Med. Chem. 2016, 31, 1576-82).
as §2

[5] = test system: male Swiss albino mice (CD-1); assay: Psychomotor seizure test 6 Hz (44 mA); assay type: in vivo; settings: screening, 100 mg/kg i.p., 0.5 h, mice
Description: as §1
In the 6 Hz test, seizures were induced by an electric stimulus of 32 mA and/or 44 mA and a frequency of 6 pulses per second. […] Before starting the test, the eye surface was gently moistened with a solution of local anesthetic (1% lidocaine solution). The study was conducted 30 minutes after intraperitoneal administration of the compounds at various doses. An electrical pulse was delivered continuously for a period of 3 seconds, followed by observation of the animal for a period of 10 seconds. During this time, immobility or stun associated with rearing, forelimb clonus, twitching of the vibrissae and Straub's tail were observed. These symptoms persist throughout the observation period, indicating the occurrence of psychomotor seizures in mice.
as §2

Compound | melting point [°C] | TD50 at 0.5 h [1] [mg/kg] | ED50 [2] [mg/kg] | 6 Hz (32 mA): number of mice protected/number of mice tested [2] | ED50 [3] [mg/kg] | responders at 100 mg/kg [3] [%] | ED50 [4] [mg/kg] | scPTZ: number of mice protected/number of mice tested [4] | 6 Hz (44 mA): number of mice protected/number of mice tested [5] | responders at 100 mg/kg [2] [%] | MES: number of mice protected/number of mice tested [3] | responders at 100 mg/kg [4] [%]
O=C(C(c1ccccc1)N1C(=O)CCC1=O)N1CCN(c2ccccc2)CC1 (racemic) [Compound 2, 1-(2-Oxo-1-phenyl-2-(4-phenylpiperazin-1-yl)ethyl)pyrrolidine-2,5-dione] | 156.7 to 157.4 | > 300 | 83.5 | ¾ | 91.1 | 100 | 100 | ¾ | 2/4 |  |  | 
O=C(C(c1ccccc1)N1C(=O)CCC1=O)N1CCN(c2cccc(Cl)c2)CC1 (racemic) [Compound 3, 1-(2-(4-(3-Chlorophenyl)piperazin-1-yl)-2-oxo-1-phenylethyl)pyrrolidine-2,5-dione] | 128.1 to 129 | 144 | 39.5 |  | 36.9 | 100 | 52.6 | ¾ | ¾ | 100 |  | 
O=C(C(c1ccccc1)N1C(=O)CCC1=O)N1CCN(c2cc(Cl)cc(Cl)c2)CC1 (racemic) [Compound 4, 1-(2-(4-(3,5-Dichlorophenyl)piperazin-1-yl)-2-oxo-1-phenylethyl)pyrrolidine-2,5-dione] | 163.8 to 165.2 | > 300 | 17.7 |  | 68.5 |  | > 100 | ¾ |  | 100 | ¾ | 
Cc1cccc(N2CCN(C(=O)C(c3ccccc3)N3C(=O)CCC3=O)CC2)c1 (racemic) [Compound 5, 1-(2-Oxo-1-phenyl-2-(4-(m-tolyl)piperazin-1-yl)ethyl)pyrrolidine-2,5-dione] | 188.7 to 192.1 | 171 | 35.5 |  | 37.2 |  | 57.6 | ¾ | 2/4 | 100 | ¾ | 
O=C(C(c1ccc(F)cc1)N1C(=O)CCC1=O)N1CCN(c2cccc(C(F)(F)F)c2)CC1 (racemic) [Compound 14, 1-(1-(4-Fluorophenyl)-2-oxo-2-(4-(3-(trifluoromethyl)phenyl)piperazin-1-yl)ethyl)pyrrolidine-2,5-dione] | 88.8 to 90.7 | > 300 | 48.3 | ¾ | 56.4 | 100 | < 100 |  |  |  |  | 50
O=C([C@@H](c1ccccc1)N1C(=O)CCC1=O)N1CCN(c2cccc(Cl)c2)CC1 [(R)-3, (R)-1-(2-(4-(3-chlorophenyl)piperazin-1-yl)-2-oxo-1-phenylethyl)pyrrolidine-2,5-dione] | 167.3 to 168.1 | 223 | 49.3 |  | 57.7 | 100 | 78.3 | ¾ |  | 100 |  | 
O=C([C@@H](c1ccccc1)N1C(=O)CCC1=O)N1CCN(c2cccc(OC(F)(F)F)c2)CC1 [(R)-10, (R)-1-(2-Oxo-1-phenyl-2-(4-(3-(trifluoromethoxy)phenyl)piperazin-1-yl)ethyl)pyrrolidine-2,5-dione] | 168.2 to 169.1 | > 150 | 12.8 |  | 22.6 | 100 | < 60 |  |  | 100 |  | 50
O=C([C@H](c1ccccc1)N1C(=O)CCC1=O)N1CCN(c2cccc(C(F)(F)F)c2)CC1 [(S)-6, (S)-1-(2-Oxo-1-phenyl-2-(4-(3-(trifluoromethyl)phenyl)piperazin-1-yl)ethyl) pyrrolidine-2,5-dione] |  | > 300 | > 130 |  | 68.5 |  | 75.4 | ¾ | ¼ | 50 | ¾ | 
CCN(CC)C1CC(=O)N(C(C(=O)N2CCN(c3cccc(C(F)(F)F)c3)CC2)c2ccccc2)C1=O.Cl (centres unmarked) [Compound 50, 3-(Diethylamino)-1-(2-oxo-1-phenyl-2-(4-(3-(trifluoromethyl)phenyl)piperazin-1-yl)ethyl)pyrrolidine-2,5-dione hydrochloride] | 142.2 to 143.1 |  |  |  |  | 100 |  |  |  | 100 |  | 50
